# Data: patent publication US20150031760A1, “PHARMACEUTICAL COMPOSITION FOR PREVENTING OR TREATING NERVOUS SYSTEM DISORDERS COMPRISING SULFURETIN OR PHARMACEUTICALLY ACCEPTABLE SALT THEREOF” (Research and Business Foundation SUNGKYUNKWAN UNIVERSITY, priority 2010, published 2015)
# What was measured:
# [1] = Free radical scavenging ability (antioxidant effect), DPPH test; format: biochemical; settings: 30 minutes
# Procedure: 2,2-diphenyl-1-picrylhydrazyl (DPPH) was dissolved in 99.5% ethanol to a concentration of 0.1 mM. Sulfuretin was dissolved and diluted in ethanol to concentrations of 0.1, 1, 5, 10, 25, 50 and 100 μg/ml. 10 μl of the sample was added to 90 μl of DPPH and admixed several times with a pipette, and the mixture was incubated at room temperature for 30 minutes, and the absorbance at 517 nm was measured.
# PC12 cells = experiment: MTT (cell viability) test, corticosterone-induced cell death in PC12 cells; format: cell-based; settings: Rattus norvegicus
# Procedure: For the experiment shown in FIG. 3, PC12 cells were cultured in DMEM medium (Hyclone, Thermo, USA) containing 10% FBS, 5% horse serum and antibiotics (Gibco-BRL, USA). […] The concentration of corticosterone was determined to be 400 μM after evaluation of cell viability.
# PARP = experiment: Western blot, PARP expression; format: cell-based, human; settings: SH-SY5Y cells
# Procedure: The incubator was maintained at a temperature of 37° C., and a mixed gas of 95% air and 5% CO2 was continuously supplied thereto to provide suitable conditions for cell culture. The cells were cultured in a 6-well plate or a 96-well plate at each of densities of 1×10^6 and 2×10^4 cells/well 24 hours before the experiment. […] Sulfuretin was used in ethanol and used at a final concentration of 0.1% or less.
# In order to identify the effect of sulfuretin on the expression of proteins related to dementia, Alzheimer's disease, Parkinson's disease and strokes, a Western blot test was carried out.
# After 24 hours, the supernatant of each well was collected and centrifuged at 400 g for 3 minutes, and the cells were washed with cold PBS and lysed with 100 μl of T-PER lysis buffer (Thermo, USA) for 30 minutes. The lysates were centrifuged at 10000 g at 4° C. for 15 minutes, and the supernatants were stored at […] until use as test samples. Proteins were quantitatively analyzed using a BCA assay kit (Thermo, USA) and separated within 8.5-12% SDS gel and then transferred to PVDF membranes. To examine the expression of the proteins, the development of fluorescence was analyzed by enhanced chemiluminescence (ECL). Specifically, the membrane was blocked with 5% skimmed non-fat milk for 1 hour and labeled with the primary antibodies, PARP, caspase-3, phospho-p38, phospho-JNK and β-actin at 4° C. overnight. Then, the membrane was washed three times with Tris-tween buffered saline (TTBS), and then labeled with horseradish peroxidase (HRP)-conjugated anti-rabbit and anti-mouse secondary antibodies at room temperature for 1 hour. Then, the membrane was washed five times with TTBS for 10 minutes. The washed film was developed by ECL using x-ray films, and concentrations were quantitatively analyzed using quantitative analysis program (Fujifilm, Japan).
# mice = experiment: Scopolamine-induced learning and memory deficits, step-through passive avoidance test; format: in vivo
# Procedure: Male ICR mice (4-weeks-old, 18-20 g) were purchased from Koatech Co., Ltd. (Pyongtaek, Korea). Mice were housed 10 per cage, allowed access to water and food ad libitum, and maintained in constant temperature (23±1° C.) and humidity (55±5%) conditions under a 12 hour light/dark cycle (lights on 07:00 to 19:00 h). All experiments were conducted in accord with the NIH Guide for the Care and Use of Laboratory Animals and with the approval of the Institutional Animal Care and Use Committee of Sungkyunkwan University.
# Assessment of the training or test trials of the passive avoidance test was carried out in identical illuminated and non-illuminated compartments (12×10×12 cm) containing 2-mm stainless steel rods spaced 0.5 cm apart. A 50 W lamp positioned 1 meter above both chambers illuminated the apparatuses. Briefly, the mice underwent two separate trials, a training trial and a test trial 24 hours later. For the training trial, mice were initially placed in the clear chamber. When they entered the dark chamber, the door closed and a 3-sec electrical foot shock (0.5 mA) was delivered through the stainless steel rods. One hour before each training trial, mice were given sulfretin (0.25, 0.5, or 1 mg/kg, p.o.). After 30 minutes, memory impairment was induced by administering scopolamine (0.5 mg/kg, i.p.). Twenty-four hours after the training trial, mice were placed in the illuminated chamber for the test trial. The time for the mouse to enter the dark compartment after the door opening was defined as latency for both training and test trials. Latencies were recorded for up to 300 s. To avoid a ceiling effect in unimpaired animals, sulfuretin alone was administered 1 hour before the training trial without scopolamine treatment. The intensity of electrical foot shock was set at 0.25 mA for 3 seconds. This lower intensity shock allowed for a behavioral window through which to detect any enhancing effect of sulfuretin.
# SH-SY5Y cells = experiment: MTT assay, amyloid beta25-35-induced cell death; format: cell-based, human; settings: pretreated with sulfuretin at 2.5, 5, 10 and 20 μM for 30 minutes, then 20 μM amyloid beta25-35 for 24 hours (p<0.05 and p<0.001)
# Procedure: For the experiments shown in FIGS. 11 to 13, SH-SY5Y and stable swedish APP mutant SH-SY5Y cells were grown in DMEM supplemented with 10% heat-inactivated FBS and 0.1% penicillin/streptomycin at 37° C. in a humidified atmosphere of 5% CO2 and 95% air. Cells were fed every three days and sub-cultured once they reached 80-90% confluency in […] cell culture dishes. Amyloid beta25-35 was prepared as a 20 mM stock immediately before use and diluted in PBS to the indicated final concentration. Prior to use, amyloid beta25-35 was dissolved in sterilized distilled water and was aggregated at 37° C. for five days. The test compounds were dissolved in DMSO and the stock solutions were added directly to the culture media to a final concentration of 0.1% (v/v) DMSO.
# First of all, MTT assay was performed to determine the neuroprotective effects of sulfuretin on amyloid beta25-35-induced cell death. […] The dark-blue formazan crystals formed in intact cells were dissolved in DMSO, and the absorbance at 540 nm was measured with a microplate reader (SpectraMax 250, Molecular Device, Sunnyvale, Calif., USA). The results were expressed as the percentage of MIT reduction relative to the absorbance of control cells.
# Tau = experiment: Western blot, amyloid beta25-35-induced hyperphosphorylation of Tau; format: cell-based, human; settings: SH-SY5Y cells; pretreatment with sulfuretin at 20 μM; 20 μM amyloid beta25-35 (p<0.01)
structure (smiles),measurement,setting,value
O=C1/C(=C/c2ccc(O)c(O)c2)Oc2cc(O)ccc21 [sulfuretin],free radical scavenging ability (inhibition),[1]; sulfuretin 0.1 μg/ml,≥ 10%
same,free radical scavenging ability (inhibition),[1]; sulfuretin 1 μg/ml,≥ 18%
same,free radical scavenging ability (inhibition),[1]; sulfuretin 5 μg/ml,≥ 58%
same,free radical scavenging ability (inhibition),[1]; sulfuretin 10 μg/ml,≥ 70%
same,free radical scavenging ability (inhibition),[1]; sulfuretin 25 μg/ml,≥ 71%
same,free radical scavenging ability (inhibition),[1]; sulfuretin 50 μg/ml,≥ 73%
same,free radical scavenging ability (inhibition),[1]; sulfuretin 100 μg/ml,≥ 75%
same,viability at 0.1 µg/mL,"PC12 cells; PC-12, read-out: cell viability",≥ 52%
same,viability at 0.5 µg/mL,"PC12 cells; PC-12, corticosterone-induced cell death, sulfuretin 0.5 μg/ml",≥ 55%
same,viability at 1 µg/mL,"PC12 cells; PC-12, corticosterone-induced cell death, sulfuretin 1 μg/ml",≥ 72%
same,viability at 5 µg/mL,"PC12 cells; PC-12, corticosterone-induced cell death, sulfuretin 5 μg/ml",≥ 90%
same,PARP expression,PARP; hydrogen peroxide + sulfuretin 0.1 μg/ml,≥ 70%
same,PARP expression,PARP; hydrogen peroxide + sulfuretin 0.5 μg/ml,≥ 92%
same,PARP expression,PARP; hydrogen peroxide + sulfuretin 1 μg/ml,≥ 99%
same,scopolamine-induced decrease of step-through latency time (test trial),"mice; sulfuretin 1 mg/kg, p.o., one hour before training trial, scopolamine 0.5 mg/kg, i.p. (p<0.05)",blocked this decrease
same,latencies during the training trials,"mice; sulfuretin p.o., training trial",did not change
same,cell viability (MTT reduction),SH-SY5Y cells,significantly increased
same,amyloid beta25-35-mediated increases in phosphorylation of Tau proteins,Tau,significantly inhibited
